Series [1] has as its target T1, CaM (Homo sapiens, UniProt P0DP23). The experiment in a line: SPR of immobilized biotin-ahx-AKAP18δ. Type of series: binding.
Series [2] has as its target T2, CaMKIIδ-T287D (Homo sapiens, UniProt Q13557, T287D). The experiment in a line: In vitro CaMKII kinase assay. The series is classed as biochemical. The note with it: 32P incorporation into syntide; compared among AKAP18δ-N sequences.
The target in series [3] is T1, CaM. The experiment in a line: CaM-agarose precipitation in the presence of Ca2+, immunoblot. The note with it: Suppl. Fig. 4b–c. The series is classed as binding.
In series [4] the test system is Ca^2+/CaM. The series is described as follows: ELISA-based binding of biotinylated peptide to CaM-coated wells. The note with it: biotinylated peptide vs scrambled control, n=6.
For series [5], the target named is T2, CaMKIIδ-T287D. As to conditions: compared with AKAP18δ-N (55–98), Suppl. Fig. 2j–k.
For series [6], the target named is T2, CaMKIIδ-T287D. The series is described as follows: CaMKIIδ-T287D-catalyzed phosphorylation of biotin-ahx-PLN. Type of series: biochemical. The note with it: biotin-ahx-PLN (1–30) as substrate, vs scrambled control peptide, n=7.
Series [7] concerns pThr17-PLN. The series is classed as cell-based. As to conditions: neonatal rat cardiomyocytes; Suppl. Fig. 6a–b.
Series [8] deals with CaMKIIδ-T287A. The series is described as follows: In vitro CaMKII kinase assay. As to conditions: CaM omitted; 32P incorporation into syntide, n=6. The series is classed as biochemical.
The test system of series [9] is CaMKIIδ-T287A. The experiment in a line: CaMKIIδ-catalyzed phosphorylation of Thr17-PLN at 0.5 μM Ca2+, immunoblot. The series is classed as biochemical. As to conditions: 0.5 μM free Ca2+.
Series [10] has as its system CaMKIIδ-T287A. The experiment in a line: Immunoprecipitation of CaM with CaMKIIδ-T287A. Type of series: binding. The note with it: immunoprecipitation in the presence of CaM, n=15.
Series [11] has as its system CaMKIIδ. The series is described as follows: Overlay of 20-mer overlapping CaMKIIδ peptide arrays with biotinylated peptide. The series is classed as binding. As to conditions: 20-mer overlapping CaMKIIδ peptides on membranes.
The test system of series [12] is cardiomyocytes.

Results on three molecules are retold here after publication PMC9500498 (Circulation research, 2021).

Peptide text beside a SMILES is read from it.

T2 sequence (Q13557 whole entry T287D): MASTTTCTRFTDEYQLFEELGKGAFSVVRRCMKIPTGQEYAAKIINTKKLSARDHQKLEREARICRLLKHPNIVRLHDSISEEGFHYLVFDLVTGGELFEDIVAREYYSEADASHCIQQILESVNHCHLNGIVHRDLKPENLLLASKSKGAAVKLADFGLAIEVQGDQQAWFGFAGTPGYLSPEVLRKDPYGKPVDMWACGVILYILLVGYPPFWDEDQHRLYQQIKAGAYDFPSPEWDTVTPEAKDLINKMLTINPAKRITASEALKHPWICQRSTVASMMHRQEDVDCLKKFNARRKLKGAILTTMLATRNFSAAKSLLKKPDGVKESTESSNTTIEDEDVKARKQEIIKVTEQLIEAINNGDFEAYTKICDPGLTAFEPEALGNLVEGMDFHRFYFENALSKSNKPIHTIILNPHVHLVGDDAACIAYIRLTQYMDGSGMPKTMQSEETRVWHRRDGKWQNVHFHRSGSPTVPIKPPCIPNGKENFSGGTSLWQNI

Regarding `CC[C@H](C)[C@H](NC(=O)[C@@H]1CCCN1C(=O)[C@@H](NC(=O)[C@H](CO)NC(=O)[C@H](CC(C)C)NC(=O)[C@H](Cc1ccccc1)NC(=O)[C@H](Cc1ccc(O)cc1)NC(=O)[C@H](CC(N)=O)NC(=O)[C@@H]1CCCN1C(=O)[C@H](CCC(N)=O)NC(=O)[C@H](Cc1ccc(O)cc1)NC(=O)[C@H](CC(=O)O)NC(=O)[C@H](CCCCN)NC(=O)[C@H](CCCCN)NC(=O)[C@H](C)NC(=O)[C@H](CCCCN)NC(=O)[C@H](CCCCN)NC(=O)[C@H](CCCNC(=N)N)NC(=O)[C@H](CCCCN)NC(=O)[C@@H](N)CCCCN)[C@@H](C)CC)C(=O)O` [AKAP18δ-N (79–98)] (H-KKRKKAKKDYQPNYFLSIPI-OH; N-terminus and C-terminus assumed), the kon in series [1] (read-out: association rate constant (ka)) amounted to 130 M⁻¹ s⁻¹. Further, the koff in series [1] (read-out: dissociation rate constant (kd)) was 0.00053 s⁻¹. Besides, in series [2], the “effect on CaMKIIδ-T287D activity (in words)” value was “inhibitory”. In addition, the “precipitation with CaM-agarose” value in series [3] is reported as “precipitated with CaM-agarose”. Besides, the “CaM binding, ELISA-based assay” value in [4] is reported as “confirmed”. In addition, in series [5], the “SPR binding to CaMKIIδ-T287D (in words)” value is listed as “bound strongly”.

In the case of `CC[C@H](C)[C@H](NC(=O)[C@@H]1CCCN1C(=O)[C@@H](NC(=O)[C@H](CO)NC(=O)[C@H](CC(C)C)NC(=O)[C@H](Cc1ccccc1)NC(=O)[C@H](Cc1ccc(O)cc1)NC(=O)[C@H](CC(N)=O)NC(=O)[C@@H]1CCCN1C(=O)[C@H](CCC(N)=O)NC(=O)[C@H](Cc1ccc(O)cc1)NC(=O)[C@H](CC(=O)O)NC(=O)[C@H](CCCCN)NC(=O)[C@H](CCCCN)NC(=O)[C@H](C)NC(=O)[C@H](CCCCN)NC(=O)[C@H](CCCCN)NC(=O)[C@H](CCCNC(=N)N)NC(=O)[C@H](CCCCN)NC(=O)[C@H](CCCCN)NC(=O)[C@@H](NC(=O)[C@H](Cc1c[nH]cn1)NC(=O)[C@H](CC(=O)O)NC(=O)[C@H](CC(N)=O)NC(=O)[C@H](CCCNC(=N)N)NC(=O)[C@H](CC(=O)O)NC(=O)CNC(=O)[C@H](CCCNC(=N)N)NC(=O)[C@H](CC(N)=O)NC(=O)[C@H](CCC(=O)O)NC(=O)[C@H](CCCCN)NC(=O)[C@H](CO)NC(=O)[C@H](CCCNC(=N)N)NC(=O)[C@H](CCCCN)NC(=O)[C@@H]1CCCN1C(=O)[C@H](CC(N)=O)NC(=O)CNC(=O)[C@H](CCC(N)=O)NC(=O)[C@@H]1CCCN1C(=O)[C@@H](NC(=O)[C@H](CC(N)=O)NC(=O)CNC(=O)[C@H](CCC(N)=O)NC(=O)[C@@H]1CCCN1)C(C)C)C(C)C)[C@@H](C)CC)C(=O)O` [AKAP18δ-N (55–98)], the “CaMKIIδ-T287D-catalyzed phosphorylation of Thr17 in PLN” value in series [6] is reported as “reduced”.

For `CC[C@H](C)[C@H](NC(=O)[C@H](CCC(N)=O)NC(=O)[C@H](Cc1ccc(O)cc1)NC(=O)[C@H](CC(C)C)NC(=O)[C@@H](NC(=O)[C@H](CCC(=O)O)NC(=O)[C@H](CCC(=O)O)NC(=O)CNC(=O)[C@H](Cc1ccccc1)NC(=O)[C@H](CCCNC(=N)N)NC(=O)[C@H](Cc1c[nH]cn1)NC(=O)[C@H](CC(=O)O)NC(=O)[C@@H](NC(=O)[C@H](Cc1ccccc1)NC(=O)[C@H](CCC(N)=O)NC(=O)[C@H](CCC(=O)O)NC(=O)[C@H](Cc1ccc(O)cc1)NC(=O)[C@H](CC(C)C)NC(=O)CNC(=O)[C@@H]1CCCN1C(=O)[C@H](CCC(=O)O)NC(=O)[C@@H](NC(=O)[C@H](CCCCN)NC(=O)[C@H](CCCNC(=N)N)NC(=O)[C@@H](NC(=O)CNC(=O)[C@H](CCCCN)NC(=O)[C@@H](N)CCCCN)C(C)C)[C@@H](C)CC)[C@@H](C)CC)[C@@H](C)CC)C(=O)N[C@@H](CC(=O)O)C(=O)O` [AKAP18δ-C], in series [7], the pThr17-PLN level result is given as “augmented”. Moreover, the “substrate phosphorylation by CaMKIIδ-T287A” value in series [8] is listed as “increased substrate phosphorylation”. In addition, the “Thr17-PLN phosphorylation by CaMKIIδ-T287A” value in series [9] is given as “further increased Thr17-PLN phosphorylation in the presence of either AKAP18δ-C (tendency)”. Also, the “trapping of CaM to CaMKIIδ-T287A” value in series [10] is listed as “induced trapping of CaM”. Moreover, the “CaMKIIδ binding on peptide arrays” value in series [11] is recorded as “too weak or dynamic to be detected”. Also, in series [12], the “cytotoxicity (and changes at basal level)” value is recorded as “No cytotoxicity”.
